Results: ChEMBL document CHEMBL2203090, “Synthesis and Evaluation of 5-Fluoro-2-aryloxazolo[5,4-b]pyridines as β-Amyloid PET Ligands and Identification of MK-3328” (ACS Med Chem Lett, 2011)
pIC50, pKd: −log10 of the molar value. The source made the active and inactive calls. The rule behind the calls is not given here.

Assays:
[1] = target: T1, Amyloid-beta precursor protein (Homo sapiens, UniProt P05067); test: […] amyloid beta plaque in cortex homogenate isolated from Alzheimer disease patient after 90 mins by scintillation counting; assay type: tissue-based; conditions: for Bmax: tested as the 3H-labelled form
T1 sequence (P05067 whole entry): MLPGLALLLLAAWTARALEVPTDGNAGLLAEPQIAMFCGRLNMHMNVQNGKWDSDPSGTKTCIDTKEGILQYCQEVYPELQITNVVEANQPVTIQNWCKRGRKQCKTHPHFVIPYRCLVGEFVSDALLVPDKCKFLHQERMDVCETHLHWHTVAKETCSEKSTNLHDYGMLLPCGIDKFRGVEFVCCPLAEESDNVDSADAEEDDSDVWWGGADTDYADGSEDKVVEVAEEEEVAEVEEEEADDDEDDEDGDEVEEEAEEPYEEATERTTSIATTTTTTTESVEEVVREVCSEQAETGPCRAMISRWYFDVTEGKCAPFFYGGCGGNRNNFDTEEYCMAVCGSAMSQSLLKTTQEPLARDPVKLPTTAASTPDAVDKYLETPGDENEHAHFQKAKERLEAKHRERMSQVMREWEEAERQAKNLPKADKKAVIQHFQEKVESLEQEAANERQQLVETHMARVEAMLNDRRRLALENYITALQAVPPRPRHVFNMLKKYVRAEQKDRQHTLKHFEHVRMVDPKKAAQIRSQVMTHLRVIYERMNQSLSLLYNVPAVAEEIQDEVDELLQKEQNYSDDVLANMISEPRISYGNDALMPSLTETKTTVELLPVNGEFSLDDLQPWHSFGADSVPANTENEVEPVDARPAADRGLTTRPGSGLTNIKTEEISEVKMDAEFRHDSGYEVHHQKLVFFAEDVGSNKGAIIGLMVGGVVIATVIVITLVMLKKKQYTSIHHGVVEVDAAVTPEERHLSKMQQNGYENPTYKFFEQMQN

[2] = target: T1, Amyloid-beta precursor protein; test: Binding affinity to human amyloid beta plaque
P-gp = test: Activity at human P-gp expressed in LLC-PK1 cells assessed as efflux ratio of apparent permeability; assay type: ADME, cell-based
[3] = target: T1, Amyloid-beta precursor protein; test: Binding affinity to amyloid beta plaque in cortex homogenate isolated from Alzheimer disease patient at 5 nM after 90 mins by autoradiography; assay type: tissue-based; conditions: tested as the 3H-labelled form
[4] = target: T1, Amyloid-beta precursor protein; test: Ratio of Bmax to Kd for amyloid beta plaque in cortex homogenate isolated from Alzheimer disease patient; assay type: tissue-based; conditions: tested as the 3H-labelled form
[5] = target: T1, Amyloid-beta precursor protein; test: […] amyloid beta plaque in cortex homogenate isolated from Alzheimer disease patient at 9.6 nM after 90 mins by scintillation counting in presence of 5-Fluoro-2-(1-methyl-1H-pyrrolo[2,3-b]pyridin-5-yl)-oxazolo[5,4-b]pyridine; assay type: tissue-based; conditions: tested as the 3H-labelled form
P-gp (Homo sapiens) = test: Activity at human P-gp expressed in pig LLC-PK1 cells assessed as passive apparent permeability
[6] = target: T1, Amyloid-beta precursor protein; test: […] amyloid beta plaque in cortex homogenate isolated from Alzheimer disease patient at 4.2 nM after 90 mins by scintillation counting in presence of [4-(5-Fluoro-oxazolo[5,4-b]pyridin-2-yl)-phenyl]-dimethyl-amine; assay type: tissue-based; conditions: tested as the 3H-labelled form
[7] = target: T1, Amyloid-beta precursor protein; test: […] amyloid beta plaque in cortex homogenate isolated from Alzheimer disease patient at 6.4 nM after 90 mins by scintillation counting in presence of 5-Fluoro-2-(1-methyl-1H-indol-5-yl)-oxazolo[5,4-b]pyridine; assay type: tissue-based; conditions: tested as the 3H-labelled form
[8] = Drug uptake in rhesus monkey cortex up to 90 mins; assay type: ADME, tissue-based, Macaca mulatta; conditions: in vivo, 1.5 h
[9] = Drug uptake in rhesus monkey cerebellum after 90 mins; assay type: ADME, tissue-based, Macaca mulatta; conditions: in vivo, 1.5 h
Brain = test: Drug uptake in rhesus monkey brain white matter up to 90 mins; assay type: ADME, tissue-based, Macaca mulatta; conditions: in vivo, 1.5 h
[10] = Drug uptake in rhesus monkey cortex after 90 mins; assay type: ADME, tissue-based, Macaca mulatta; conditions: in vivo, 1.5 h
[11] = Drug uptake in rhesus monkey cerebellum up to 90 mins; assay type: ADME, tissue-based, Macaca mulatta; conditions: in vivo, 1.5 h

Structure (SMILES)	pIC50 [2]	efflux ratio (P-gp)	Papp (P-gp (Homo sapiens))	further results
Cn1ccc2cc(-c3nc4ccc(F)nc4o3)cnc21	7.98	< 3	> 20 ×10⁻⁶ cm/s	Bmax [1]: 1100 nM; Activity [3]: Active; Ratio [4]: 117; Activity [5]: 35%
CN(C)c1ccc(-c2nc3ccc(F)nc3o2)cc1	8.40	< 3	> 20 ×10⁻⁶ cm/s	Bmax [1]: 2090 nM; Activity [3]: Active; Ratio [4]: 464; Activity [6]: 50%
CN1CCc2cc(-c3nc4ccc(F)nc4o3)cnc21	7.33	< 3	> 20 ×10⁻⁶ cm/s	
Fc1ccc2nc(-c3cnc4[nH]ccc4c3)oc2n1	7.59	< 3	> 20 ×10⁻⁶ cm/s	
[3H]C([3H])([3H])n1ccc2cc(-c3nc4ccc(F)nc4o3)cnc21				pKd [1]: 8.02
Cn1ccc2cc(-c3nc4ccc(F)nc4o3)ncc21	< 6.00	< 3	> 20 ×10⁻⁶ cm/s	
CNc1ccc(-c2nc3ccc(F)nc3o2)cc1	7.64	< 3	> 20 ×10⁻⁶ cm/s	
[3H]C([3H])([3H])n1ccc2cc(-c3nc4ccc(F)nc4o3)ccc21				pKd [1]: 8.19
Fc1ccc2nc(-c3ccc4[nH]ccc4c3)oc2n1	7.86	< 3	> 20 ×10⁻⁶ cm/s	
Fc1ccc2nc(-c3ccc4cc[nH]c4c3)oc2n1	7.34	< 3	> 20 ×10⁻⁶ cm/s	
[3H]C([3H])([3H])N(C)c1ccc(-c2nc3ccc(F)nc3o2)cc1				pKd [1]: 8.35
Cn1ccc2cc(-c3nc4ccc(F)nc4o3)ccc21	8.10	< 3	> 20 ×10⁻⁶ cm/s	Bmax [1]: 1450 nM; Activity [3]: inactive; Ratio [4]: 232; Activity [7]: 50%
COc1ccc(-c2nc3ccc(F)nc3o2)cc1	7.49	< 3	> 20 ×10⁻⁶ cm/s	
Cn1ccc2cc(-c3nc4ccc([18F])nc4o3)cnc21				SUV [8]: 2.7; Drug uptake [9]: Not Active; Drug uptake (Brain): Not Active; Drug uptake [10]: Not Active; SUV [11]: 3
Fc1ccc2nc(-c3ccc4ncsc4c3)oc2n1	7.45	< 3	> 20 ×10⁻⁶ cm/s	
Cn1cnc2cc(-c3nc4ccc(F)nc4o3)ccc21	< 6.00	< 3	> 20 ×10⁻⁶ cm/s	
Cn1ncc2cc(-c3nc4ccc(F)nc4o3)ccc21	7.31	< 3	> 20 ×10⁻⁶ cm/s	
Cn1ncc2cc(-c3nc4ccc(F)nc4o3)cnc21	7.52	< 3	> 20 ×10⁻⁶ cm/s	
CN(C)c1ccc(-c2nc3ccc(F)nc3o2)cn1	7.38	< 3	> 20 ×10⁻⁶ cm/s	
CNc1ccc(-c2nc3ccc(F)nc3o2)cn1	6.99	< 3	> 20 ×10⁻⁶ cm/s	
